From patent US20160052926A1, “NOVEL PYRIMIDINE AND PYRIDINE COMPOUNDS AND USAGE THEREOF” (HUTCHISON MEDIPHARMA LIMITED, priority 2013, published 2016)

What was measured:
Recombinant human FGFR1 = Recombinant human FGFR1 (Homo sapiens, UniProt P11362); assay: Transcreener Kinase Assay of FGFR1; format: biochemical; settings: read-out: FGFR1 (FP) IC50
Recombinant human FGFR2 = Recombinant human FGFR2 (Homo sapiens, UniProt P21802); assay: Transcreener Kinase Assay of FGFR2; format: biochemical; settings: read-out: FGFR2 (FP) IC50
Sequence of Recombinant human FGFR2 (P21802 22-821): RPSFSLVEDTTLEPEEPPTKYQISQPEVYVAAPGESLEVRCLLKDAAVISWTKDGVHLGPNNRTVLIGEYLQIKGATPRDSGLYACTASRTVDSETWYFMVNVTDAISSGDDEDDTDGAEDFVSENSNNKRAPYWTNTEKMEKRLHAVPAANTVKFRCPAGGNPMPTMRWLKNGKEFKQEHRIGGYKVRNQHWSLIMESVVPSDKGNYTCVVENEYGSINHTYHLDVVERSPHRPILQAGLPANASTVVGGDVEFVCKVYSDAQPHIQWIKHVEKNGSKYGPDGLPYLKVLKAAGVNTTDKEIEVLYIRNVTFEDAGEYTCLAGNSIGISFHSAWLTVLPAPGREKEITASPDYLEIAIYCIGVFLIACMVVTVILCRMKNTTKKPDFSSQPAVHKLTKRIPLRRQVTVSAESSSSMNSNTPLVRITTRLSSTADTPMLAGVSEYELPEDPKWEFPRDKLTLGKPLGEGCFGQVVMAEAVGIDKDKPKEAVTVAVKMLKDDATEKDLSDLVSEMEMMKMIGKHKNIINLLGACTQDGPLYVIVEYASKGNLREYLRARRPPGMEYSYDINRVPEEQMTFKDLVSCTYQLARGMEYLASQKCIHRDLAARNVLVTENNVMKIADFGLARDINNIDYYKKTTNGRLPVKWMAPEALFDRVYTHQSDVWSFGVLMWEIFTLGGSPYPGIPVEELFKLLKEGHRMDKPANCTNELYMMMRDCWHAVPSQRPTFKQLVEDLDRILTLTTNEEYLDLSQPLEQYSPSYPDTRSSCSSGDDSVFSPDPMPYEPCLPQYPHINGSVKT

FGFR3 kinase = FGFR3 kinase (Homo sapiens, UniProt P22607); assay: Z-Lyte Kinase Assay of FGFR3; format: biochemical
Sequence of FGFR3 kinase (P22607 23-806): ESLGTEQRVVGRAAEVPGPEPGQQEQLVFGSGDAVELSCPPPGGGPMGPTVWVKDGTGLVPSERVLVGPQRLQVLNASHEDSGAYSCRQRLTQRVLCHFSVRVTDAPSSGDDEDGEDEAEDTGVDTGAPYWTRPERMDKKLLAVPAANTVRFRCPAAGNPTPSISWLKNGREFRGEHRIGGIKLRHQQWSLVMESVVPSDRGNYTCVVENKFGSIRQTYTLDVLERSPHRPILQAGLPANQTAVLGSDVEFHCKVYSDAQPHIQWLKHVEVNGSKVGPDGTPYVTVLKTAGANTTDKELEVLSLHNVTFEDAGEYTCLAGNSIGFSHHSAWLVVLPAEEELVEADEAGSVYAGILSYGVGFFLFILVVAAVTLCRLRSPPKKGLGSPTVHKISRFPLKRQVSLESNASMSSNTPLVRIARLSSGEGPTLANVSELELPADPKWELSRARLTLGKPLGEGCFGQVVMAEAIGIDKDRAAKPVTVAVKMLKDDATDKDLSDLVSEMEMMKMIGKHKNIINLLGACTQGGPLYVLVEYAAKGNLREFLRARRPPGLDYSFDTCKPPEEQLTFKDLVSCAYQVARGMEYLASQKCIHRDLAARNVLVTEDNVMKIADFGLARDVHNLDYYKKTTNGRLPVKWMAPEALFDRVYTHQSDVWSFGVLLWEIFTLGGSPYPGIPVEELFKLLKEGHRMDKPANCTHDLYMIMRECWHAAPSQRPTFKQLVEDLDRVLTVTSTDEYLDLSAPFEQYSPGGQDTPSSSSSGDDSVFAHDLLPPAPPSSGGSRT
Outline: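 FRET peptide-cleavage format: 1 h kinase reaction at RT (25-30[…]), then 1 h protease development, then stop and dual-emission read (Ex400, Em445/520 nm). Working solutions: kinase 0.7 μg/ml, Tyr 4 peptide 4 μM, ATP 300 uM in 1.33× buffer; eight compound concentrations from 1 μM, 2% DMSO final.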

KG-1 = assay: Cellular Proliferation Assay (Cell Counting Kit-8), KG-1; format: cell-based; settings: Homo sapiens, KG1 cells, 72 hours
Outline: (§1)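 Proliferation was read as OD at 450 nm after 1 h with CCK-8, following 72 h drug exposure at 37 °C, 5% CO2. Inhibition was calculated against cells in 0.5% DMSO minus medium blank, and the 50% point reported. The compound series (10–0.004 μM, pre-addition, in 5% DMSO) was added one day after plating KG-1, SNU-16 and RT-112 at 30,000, 5,000 and 1,000 cells/well respectively.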

SNU-16 = assay: Cellular Proliferation Assay (Cell Counting Kit-8), SNU-16; format: cell-based; settings: Homo sapiens, SNU-16 cells, 72 hours
Outline: as §1

RT-112 = assay: Cellular Proliferation Assay (Cell Counting Kit-8), RT-112; format: cell-based; settings: Homo sapiens, RT-112 cells, 72 hours
Outline: as §1

Sequence of Recombinant human FGFR1 (P11362 22-822): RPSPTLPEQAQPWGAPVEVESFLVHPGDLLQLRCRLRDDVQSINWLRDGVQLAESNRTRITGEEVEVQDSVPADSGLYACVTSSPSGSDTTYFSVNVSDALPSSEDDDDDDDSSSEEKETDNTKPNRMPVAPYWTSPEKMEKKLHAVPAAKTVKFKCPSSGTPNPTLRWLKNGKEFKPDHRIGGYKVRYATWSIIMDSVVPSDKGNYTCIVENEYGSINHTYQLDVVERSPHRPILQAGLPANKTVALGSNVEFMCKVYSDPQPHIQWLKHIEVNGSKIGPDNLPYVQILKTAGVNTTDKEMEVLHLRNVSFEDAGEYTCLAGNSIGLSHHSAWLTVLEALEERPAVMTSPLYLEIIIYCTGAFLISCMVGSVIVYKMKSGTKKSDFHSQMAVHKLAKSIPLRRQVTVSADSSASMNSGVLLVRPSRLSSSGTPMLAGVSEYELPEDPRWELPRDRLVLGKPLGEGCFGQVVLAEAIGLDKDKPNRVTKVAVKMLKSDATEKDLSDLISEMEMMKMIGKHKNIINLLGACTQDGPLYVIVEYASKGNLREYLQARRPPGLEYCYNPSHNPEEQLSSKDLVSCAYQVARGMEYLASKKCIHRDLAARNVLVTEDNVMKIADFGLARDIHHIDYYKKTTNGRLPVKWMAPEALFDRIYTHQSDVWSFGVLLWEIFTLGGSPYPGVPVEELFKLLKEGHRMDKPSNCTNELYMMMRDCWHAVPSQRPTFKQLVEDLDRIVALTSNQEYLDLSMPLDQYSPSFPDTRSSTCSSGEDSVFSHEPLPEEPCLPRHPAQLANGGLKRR

SMILES	IC50 (Recombinant human FGFR1) [nM]	IC50 (Recombinant human FGFR2) [nM]	IC50 (FGFR3 kinase) [nM]	IC50 (SNU-16) [nM]	IC50 (KG-1) [nM]	IC50 (RT-112) [nM]
CNC(=O)c1cc(OC)c(Cl)c(CCc2cnc(Nc3ccc(N4C[C@@H](C)N[C@@H](C)C4)cc3)nc2)c1F [Compound 91]	20	16	17	19	32	64
CCn1ncc(Nc2ncc(CCc3cc(C(=O)NC)cc(OC)c3F)cn2)c1C [Compound 110]	68	14	24	46	95	197
CNC(=O)c1cc(COc2cnc(Nc3ccc(N4CCNC(C)(C)C4)cc3)nc2)c(F)c(OC)c1 [Compound 193]	8	5	11	17	62	21
CNC(=O)c1cc(COc2cnc(Nc3ccc(N4C[C@@H](C)N[C@@H](C)C4)cc3)nc2)c(Cl)c(OC)c1 [Compound 186, 4-chloro-3-(((2-((4-((3S,5R)-3,5-dimethylpiperazin-1-yl)phenyl)amino)pyrimidin-5-yl)oxy)methyl)-5-methoxy-N-methylbenzamide]	5	4	5	7	10	7
CNC(=O)c1cc(OC)c(F)c(COc2cnc(Nc3ccc(N4C[C@@H](C)N[C@@H](C)C4)cc3)nc2)c1F [Compound 199]	13	7	8	18	20	41
CNC(=O)c1cc(CCc2cnc(Nc3cnn(C)c3C)nc2)c(F)c(OC)c1 [Compound 105]	31	11	30	48	201	428
CNC(=O)c1cc(CCc2cnc(Nc3cnn(Cc4ccccn4)c3)nc2)c(F)c(OC)c1 [Compound 142]	20	11	28	28	60	208
CNC(=O)c1cc(CCc2cnc(Nc3cnn(C(F)F)c3)nc2)c(Cl)c(OC)c1 [Compound 149]	15	8	33	17	67	21
CNC(=O)c1cc(CCc2cnc(Nc3cnn(C4CCCC4)c3)nc2)c(F)c(OC)c1 [Compound 122]	14	6	9	13	20	67
CNC(=O)c1cc(OC)c(Cl)c(/C=C/c2cnc(Nc3ccc(N4C[C@@H](C)N[C@@H](C)C4)cc3)nc2)c1F [Compound 8]	6	5	14	14	11	19
CNC(=O)c1cc(CCc2cnc(Nc3ccc(N4C[C@@H](C)N[C@@H](C)C4)c(F)c3)nc2)c(Cl)c(OC)c1 [Compound 204]	9	5	8	7	18	15
CCN(CC)CCn1cc(Nc2ncc(CCc3cc(C(=O)NC)cc(OC)c3F)cn2)cn1 [Compound 136]	23	11	18	25	92	37
CNC(=O)c1cc(CCc2cnc(Nc3cnn(CCO)c3)nc2)c(Cl)c(OC)c1 [Compound 148]	9	5	14	59	24	495
CCn1cc(Nc2ncc(OCc3c(F)c(OC)cc(C(=O)NC)c3F)cn2)cn1 [Compound 203]	11	8	14	23	11	37
CNC(=O)c1cc(CCc2cnc(Nc3cnn(CC4(C)COC4)c3)nc2)c(F)c(OC)c1 [Compound 131]	19	8	11	13	37	131
CNC(=O)c1cc(CCc2cnc(Nc3cnn(C(F)F)c3)nc2)c(F)c(OC)c1 [Compound 116]	27	10	28	45	20	19
CNC(=O)c1cc(COc2cnc(Nc3ccc(N4C[C@@H](C)N[C@@H](C)C4)c(C)c3)nc2)c(F)c(OC)c1 [Compound 194]	14	14	20	31	60	27
CCN(CC)CCCn1cc(Nc2ncc(CCc3cc(C(=O)NC)cc(OC)c3Cl)cn2)cn1 [Compound 88]	15	6	9	13	214	27

Second part, led by results:

IC50 (Recombinant human FGFR1) [nM]	IC50 (Recombinant human FGFR2) [nM]	IC50 (FGFR3 kinase) [nM]	IC50 (SNU-16) [nM]	SMILES	IC50 (KG-1) [nM]	IC50 (RT-112) [nM]
256	42	21	293	CCn1cc(Nc2ncc(CCc3cc(OC)cc(C(=O)NC)c3F)cn2)cn1 [Compound 27]	340	402
12	5	13	24	CCn1cc(Nc2ncc(CCc3cc(C(=O)NC)cc(OC)c3F)cn2)cn1 [Compound 100, 3-(2-(2-(1-ethyl-1H-pyrazol-4-ylamino)pyrimidin-5-yl)ethyl)-4-fluoro-5-methoxy-N-methylbenzamide]	21	94
18	7	25	55	CNC(=O)c1cc(CCc2cnc(Nc3ccn4ccnc4c3)nc2)c(F)c(OC)c1 [Compound 66]	194	201
43	41	43	71	CCN1CCN(c2ccc(Nc3ncc(CCc4cc(C(=O)NC)cc(OC)c4C)cn3)cc2)CC1 [Compound 39]	49	342
9	5	9	20	CNC(=O)c1cc(CCc2cnc(Nc3cnn(CCOC)c3)nc2)c(Cl)c(OC)c1 [Compound 127]	22	66
10	10	36	50	CCN1CCN(c2ccc(Nc3ncc(/C=C/c4cc(C(=O)NC)cc(OC)c4F)cn3)cc2)CC1 [Compound 87]	25	84
5	4	8	16	CCN1CCN(c2cc(Nc3ncc(CCc4cc(OC)cc(C(=O)NOC)c4)cn3)ccn2)CC1 [Compound 76]	43	67
2	3	2	4	CCN1CCN(c2ccc(Nc3ncc(CCc4cc(C(=O)NOC)cc(OC)c4F)cn3)cc2)CC1 [Compound 55]	3	16
48	28	112	55	CONC(=O)c1cc(CCc2cnc(Nc3ccc4nccn4c3)nc2)cc(OC)c1 [Compound 65]	203	296
12	7	18	55	CNC(=O)c1cc(CCc2cnc(Nc3cn[nH]c3)nc2)c(F)c(OC)c1 [Compound 102]	33	461
25	5	8	22	CNC(=O)c1cc(CCc2cnc(Nc3cnn(C4CCC4)c3)nc2)c(F)c(OC)c1 [Compound 10]	18	29
11	6	12	22	CNC(=O)c1cc(CCc2cnc(Nc3ccc(CN4CCOCC4)cc3)nc2)c(F)c(OC)c1 [Compound 97]	26	159
161	53	213	170	CNC(=O)c1cc(CCc2cnc(Nc3cnc4ccnn4c3)nc2)c(F)c(OC)c1 [Compound 94]	344	287
195	27	243	419	CNC(=O)c1cc(CCc2cnc(Nc3cccnc3OC)nc2)c(F)c(OC)c1 [Compound 63]	427	895
15	16	152	149	CNC(=O)c1cc(CCc2cnc(Nc3cnn(-c4ccccn4)c3)nc2)c(Cl)c(OC)c1 [Compound 151]	71	626
43	41	50	48	CCN1CC[C@@H](n2cc(Nc3ncc(CCc4cc(C(=O)NC)cc(OC)c4F)cn3)cn2)C1 [Compound 171]	128	655
20	10	19	48	COc1cc(C(=O)NC2CC2)cc(CCc2cnc(Nc3cnn(C)c3)nc2)c1Cl [Compound 157]	48	254
